# Source: patent US20110034557A1, “ANTIMICROBIAL COMPOSITIONS AND USES THEREOF” (MODULAR GENETICS, INC., priority 2009, published 2011)
# Residues, ends and D or L forms follow the SMILES beside them.
# Tested on: S. aureus (ATCC 6538)
# Test: Disk assay of growth inhibition of S. aureus on agar plates
# Assay type: cell-based, Staphylococcus aureus
# Experimental: The ability of FA-Glu to inhibit the growth or kill S. aureus (ATCC 6538) was examined.
# S. aureus was grown in liquid culture in either Tryptic Soy Broth (TSB; Sigma), which contains casein peptone 17 g/l, soya peptone 3 g/l, sodium chloride 5 g/l, dipotassium hydrogen phosphate 2.5 g/l, and glucose 2.5 g/l or M9YE (disodium hydrogen phosphate 6 g/l, monopotassium phosphate 3 g/l, sodium chloride 0.5 g/l, ammonium chloride 1 g/l, yeast extract 3 g/l, glucose 5 g/l, and casamino acids 10 g/l) at 30° C. Disk assays were carried out on M9YE plates (M9YE liquid media plus 15 g/l agar) and YPD plates (peptone 20 g/l, yeast extract 10 g/l, glucose 20 g/l, agar 15 g/l). S. aureus was plated out evenly using a sterile cotton swab. Blank Paper disks 6 mm were placed into a sterile container and then different dilutions of FA-Glu (25 ug, 100 ug, 300 ug) that had been re-suspended in a diluted aqueous solution containing ammonium hydroxide (pH 10.2) were added to the disks. The disks were allowed to absorb and dry. Using sterile tweezers, the disks were placed onto the plates that had been swabbed with Staphylococcus aureus. They were then incubated at 28° C. over approximately 65 hours.
# Disk assays were repeated as above using a commercially available acyl amino acid, cocoyl glutamate (Ajinomoto, Japan).
Molecule,halo formation around disk (control experiment) (300 ug absorbed onto a disk),regrowth in halos (disk assay plates),halo formation around disk (disk assays repeated as above),halo size relative to FA-Glu (same concentration and same conditions as FA-Glu)
"CC(C)CCCCCCCCC[C@@H]1CC(=O)N[C@@H](CCC(=O)O)C(=O)N[C@@H](CC(C)C)C(=O)N[C@H](CC(C)C)C(=O)N[C@@H](C(C)C)C(=O)N[C@@H](CC(=O)O)C(=O)N[C@H](CC(C)C)C(=O)N[C@@H](CC(C)C)C(=O)O1 [surfactin, reference compound] (HELM PEPTIDE1{E.L.[dL].V.D.[dL].L}|CHEM1{[CC(C)CCCCCCCCC[C@H](CC(=O)[*:1])O[*:2]]}$PEPTIDE1,CHEM1,1:R1-1:R1|PEPTIDE1,CHEM1,7:R2-1:R2$$$V2.0)","produced a halo, but there was cell growth within the halo",–,–,–
cocoyl glutamate [reference compound],–,regrowth occurred,produced a halo,larger than halos observed using FA-Glu
